Experimental data published in ChEMBL document CHEMBL1159290, “Longicin and goniothalamicinone: novel bioactive monotetrahydrofuran acetogenins from Asimina longifolia” (J Nat Prod, 1995).
Converted amounts (≈) assume the structure as drawn.

Legend:
[1] = tested on: A549; assay: Cytotoxicity against human A549 cells after 7 days by MTT assay; type: functional
[2] = tested on: PC-3; assay: Cytotoxicity against human PC3 cells after 7 days by MTT assay; type: functional; conditions: PC-3, 168 h, read-out: ED50 (the source's name)
[3] = tested on: MCF7; assay: Cytotoxicity against human MCF7 cells after 7 days by MTT assay; type: functional; conditions: MCF7, 168 h, read-out: ED50 (the source's name)
[4] = tested on: MIA PaCa-2; assay: Cytotoxicity against human MIAPaCa2 cells after 7 days by MTT assay; type: functional; conditions: for EC50: Homo sapiens, MIA PaCa-2, 168 h, read-out: ED50 (the source's name)
[5] = tested on: A498; assay: Cytotoxicity against human A498 cells after 7 days by MTT assay; type: functional; conditions: for EC50: Homo sapiens, A498, 168 h, read-out: ED50 (the source's name)
[6] = tested on: HT-29; assay: Cytotoxicity against human HT-29 cells after 7 days by MTT assay; type: functional; conditions: for EC50: Homo sapiens, HT-29, 168 h, read-out: ED50 (the source's name)
[7] = Toxicity to brine shrimp; type: organism-based; conditions: artemia, in vivo

Structure (SMILES) | ED50 [1] | EC50 [2] [mg/L] | EC50 [3] [mg/L] | ED50 [4] | EC50 [5] [mg/L] | EC50 [6] [mg/L] | LC50 [7] [mg/L] | EC50 [4] [mg/L] | ED50 [6] | EC50 ([1]; Homo sapiens, A549, 168 h, read-out: ED50 (the source's name)) [mg/L] | ED50 [5] [×10⁻⁴ ug/ml]
CCCCCCCCCCCCCC[C@H](O)[C@H]1CC[C@H]([C@H](O)CC[C@H](O)CCCCC[C@@H]2CC(CC(C)=O)C(=O)O2)O1 (mixture of isomers) | 1.23 ×10⁻⁴ ug/ml | 0.201 | 0.186 | 2.37 ×10⁻⁴ ug/ml | 0.172 | 0.235 | 0.46 |  |  |  | 
CCCCCCCCCCCCCC[C@@H](O)[C@H]1CC[C@H]([C@H](O)CC[C@H](O)CCCCC[C@@H]2CC(CC(C)=O)C(=O)O2)O1 (mixture of isomers) | 2.06 ×10⁻⁵ ug/ml | 0.137 | 0.967 |  | 0.291 |  | 0.14 | 0.00133 | 4.05 ×10⁻⁴ ug/ml |  | 
COc1cccc2c1C(=O)c1c(O)c3c(c(O)c1C2=O)C[C@@](O)(C(=O)CO)C[C@@H]3O[C@H]1C[C@H](N)[C@H](O)[C@H](C)O1 [DOXORUBICIN] |  |  | 0.329 (≈ 605 nM) |  | 0.00197 (≈ 3.62 nM) | 0.0116 (≈ 21.3 nM) |  | 0.00195 (≈ 3.59 nM) |  | 0.00341 (≈ 6.27 nM) | 
CCCCCCCCCCCCCC[C@H](O)[C@H]1CC[C@H]([C@H](O)CC[C@H](O)CCCCC[C@@H](O)CC2=C[C@H](C)OC2=O)O1 [LONGICIN] | 1.77 ×10⁻⁶ ug/ml | 0.00426 (≈ 7.14 nM) | > 1 | 1.25 ×10⁻⁹ ug/ml |  |  | 0.11 (≈ 184 nM) |  | 2.4 ×10⁻⁵ ug/ml |  | 1.99
